Results taken from patent publication US10653645B2, “Method for enhancing folding and transport of misfolded glucocerebrosidase” (The Hospital for Sick Children, priority 2007, dated 2020).
Read-outs that look alike come from different tables or passages of the source. Values belong to the molecule of their own block, whether it stands above or below them.

What was measured:
[1] = tested on: Gaucher disease fibroblast cell lines harboring the N370S/N370S missense mutation; assay: Immunohistochemical fluorescence labeling, colocalization of GCase and Lamp-1; assay type: cell-based, human; settings: N370S/N370S fibroblasts
Experimental: Immunohistochemical fluorescence labeling of GD fibroblast cell lines harboring the N370S/N370S missense mutation were performed with rabbit polyclonal anti-GCase and mouse anti-Lamp-1 (lysosomal membrane associated protein). Cell nuclear staining was performed with 4′-6′-diamidino-2-phenylindole. […] (FIG. 6A, staining with anti-GCase in the presence of ABX; FIG. 6B, staining with anti-Lamp-1 in the presence of ABX; FIG. 6C, merger of FIGS. 6A and 6B; FIG. 6D, staining with anti-GCase in the presence of IFG; FIG. 6E, staining with anti-Lamp-1 in the presence of IFG; FIG. 6F, merger of FIGS. 6D and 6E; FIG. 6G, staining with anti-GCase in the absence of drug; FIG. 6H, staining with anti-Lamp-1 in the absence of drug; FIG. 6I, merger of FIGS. 6G and 6H.)
Immunohistochemical fluorescence labeling of Gaucher disease fibroblast cell lines harboring the N370S/N370S missense mutation was performed with rabbit polyclonal anti-GCase and mouse anti-Lamp-1 (lysosomal membrane associated protein). Cell nuclear staining was performed with 4′-6′-diamidino-2-phenylindole. […] Restored activity and trafficking of mutant GCase are the ultimate goals of a pharmacological chaperone-based therapeutic strategy.

[2] = biological target: T1, wild type (WT) GCase (Homo sapiens, UniProt P04062, R534H); assay: Heat denaturation of GCase at 50° C.; assay type: biochemical; settings: for increase of the half life of GCase: 20 μM
T1 construct: purchased Genzyme
T1 sequence (P04062 40-536 R534H): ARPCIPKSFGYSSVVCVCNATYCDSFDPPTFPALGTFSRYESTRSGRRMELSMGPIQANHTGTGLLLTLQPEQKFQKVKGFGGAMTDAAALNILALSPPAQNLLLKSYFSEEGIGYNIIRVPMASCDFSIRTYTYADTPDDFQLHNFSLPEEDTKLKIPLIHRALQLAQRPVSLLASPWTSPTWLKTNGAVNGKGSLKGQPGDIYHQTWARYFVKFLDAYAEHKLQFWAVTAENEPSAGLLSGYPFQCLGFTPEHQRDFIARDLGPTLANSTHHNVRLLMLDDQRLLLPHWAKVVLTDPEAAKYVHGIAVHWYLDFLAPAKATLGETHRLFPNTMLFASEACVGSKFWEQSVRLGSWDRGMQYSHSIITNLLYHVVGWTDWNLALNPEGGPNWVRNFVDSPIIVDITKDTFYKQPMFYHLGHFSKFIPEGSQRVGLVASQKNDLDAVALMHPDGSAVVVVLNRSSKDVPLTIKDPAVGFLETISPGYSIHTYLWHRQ
Experimental: (§1) Experiments set forth herein and related to the activity and function of GCase in the presence and absence of compounds of the invention were conducted using imiglucerase (CEREZYME, Genzyme) as the GCase. Cellular materials were obtained from fibroblast lysates expressing wild-type GCase and separately from fibroblast lysates derived from Gaucher disease patient cell lines carrying genotypes that encode either the N370S/N370S or F213I/L444P substitutions in GCase.
(§2) Quantitative determinations of enzymatic activity were performed by way of fluorometric assays utilizing the artificial substrate 4-methylumbelliferyl 2-acetamido-2-deoxy-beta-D-glucopyranoside (MUGlc). Reactions were performed at room temperature for 15-30 minutes, as indicated, using equal aliquots of enzyme (25 μL 20 mM Citrate Phosphate pH 5.5, 0.4% Taurodeoxycholate (TC)) and substrate (25 μL 20 mM Citrate Phosphate pH 5.5, MUGlc 1.6 mM). The amount of MU-fluorophore released in each assay was monitored fluorometrically using a spectrophotofluorometer following the addition of a 4-fold (200 μl) excess of 0.1M MAP, pH 10.5.

[3] = biological target: T2, human beta-glucocerebrosidase (GCase, CEREZYME) (Homo sapiens, UniProt P04062, R534H); assay: GCase activity fluorometric assay (inhibition, kinetics, pH dependence)
T2 sequence (P04062 40-536 R534H): T1 sequence (P04062 40-536 R534H)
Experimental: as §1, §2
The activity of GCase was also assayed at several different pH values, including 4.5, 5.0, 5.5, 6.0, 6.5 and 7.0.

increase of the half life of GCase [2]: more than three-fold | increase in GCase activity remaining after incubation ([2]; highest concentration of ambroxol, vs DMSO): more than three-fold | inhibition of GCase under acidic conditions ([3]; 25 μM ambroxol, pH 4.5, 5.0, 5.5, 6.0, 6.5 and 7.0 assayed): only marginally inhibited | mode of inhibition of GCase ([3]; kinetic analysis): competitive inhibitor
SMILES: Nc1c(Br)cc(Br)cc1CN[C@H]1CC[C@H](O)CC1 [Ambroxol, trans-4-(2-amino-3,5-dibromobenzylamino) cyclohexanol]
Colocalization of GCase and Lamp-1 at the lysosome (rescue of mutant GCase trafficking) [1]: Colocalization of GCase and Lamp-1 occurs at the lysosome

IC50 [3]: 60 µM | inhibitory activity compared with ambroxol ([3]; Table 2 IC50 values): two fold reduction
SMILES: CN(Cc1cc(Br)cc(Br)c1N)C1CCCCC1 [Bromhexine, 2-amino-3,5-dibromo-N-cyclohexyl-N-methylbenzenemethanamine]

IC50 ([3]; 0.3 mM MUbGlc as the substrate): Dibromoaniline (NI −1000)
SMILES: Nc1ccc(Br)cc1Br [Dibromoaniline]

IC50 [3]: > 1000 µM
SMILES: O=C(Nc1ccc(Br)cc1Br)c1ccccc1 [Dibromophenyl Benzamide]

SMILES: Nc1c(Br)cc(Br)cc1Br [Tribromoaniline]
IC50 ([3]; 0.3 mM MUbGlc as the substrate): Tribromoaniline (NI −1000)

SMILES: CCC(=O)Oc1c(Br)cc(Br)cc1Br [Tribromophenyl Propanoate]
IC50 [3]: > 1000 µM

increase of the half life of GCase [2]: more than three-fold
SMILES: OC[C@H]1CNC[C@@H](O)[C@@H]1O [isofagomine]
